From ChEMBL document CHEMBL4339211 (Bioorg Med Chem, 2019)

Assays:
Type in all cases: functional, cell-based
D(1A) dopamine receptor [1] = molecular target: T1, D(1A) dopamine receptor (Homo sapiens, UniProt P21728); assay: Agonist activity at D1 receptor (unknown origin) expressed in CHOK1 cells assessed as increase in cAMP accumulation at 10 uM measured after 30 mins
D(1A) dopamine receptor [2] = molecular target: T1, D(1A) dopamine receptor; assay: Antagonist activity at D1 receptor (unknown origin) expressed in CHOK1 cells assessed as inhibition of SKF38393-induced cAMP accumulation measured after 30 mins
D(2) dopamine receptor [3] = molecular target: T2, D(2) dopamine receptor (Homo sapiens, UniProt P14416); assay: Antagonist activity at D2 receptor (unknown origin) expressed in CHOK1 cells assessed as inhibition of dopamine-induced calcium flux preincubated for 60 mins at 37 degC followed by 15 mins incubation under room temperature and subsequent dopamine addition measured after 20 secs for 100 secs by calcium-4 dye based FLIPR assay
D(2) dopamine receptor [4] = molecular target: T2, D(2) dopamine receptor; assay: Agonist activity at D2 receptor (unknown origin) expressed in CHOK1 cells assessed as increase in calcium flux at 10 uM incubated for 60 mins at 37 degC followed by 15 mins incubation under room temperature measured after 20 secs for 100 secs by calcium-4 dye based FLIPR assay relative to control

T1 sequence (P21728 whole entry): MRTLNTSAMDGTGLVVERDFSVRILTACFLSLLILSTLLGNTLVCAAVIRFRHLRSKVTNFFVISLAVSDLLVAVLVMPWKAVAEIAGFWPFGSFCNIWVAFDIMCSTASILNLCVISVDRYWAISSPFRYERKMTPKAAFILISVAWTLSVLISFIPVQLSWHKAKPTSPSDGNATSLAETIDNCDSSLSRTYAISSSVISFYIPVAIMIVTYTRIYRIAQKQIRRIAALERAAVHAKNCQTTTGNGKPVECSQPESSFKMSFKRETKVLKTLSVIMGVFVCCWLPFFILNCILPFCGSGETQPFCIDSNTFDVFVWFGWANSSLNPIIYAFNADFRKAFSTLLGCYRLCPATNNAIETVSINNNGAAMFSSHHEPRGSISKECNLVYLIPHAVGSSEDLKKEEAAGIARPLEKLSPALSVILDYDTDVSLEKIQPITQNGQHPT
T2 sequence (P14416 whole entry): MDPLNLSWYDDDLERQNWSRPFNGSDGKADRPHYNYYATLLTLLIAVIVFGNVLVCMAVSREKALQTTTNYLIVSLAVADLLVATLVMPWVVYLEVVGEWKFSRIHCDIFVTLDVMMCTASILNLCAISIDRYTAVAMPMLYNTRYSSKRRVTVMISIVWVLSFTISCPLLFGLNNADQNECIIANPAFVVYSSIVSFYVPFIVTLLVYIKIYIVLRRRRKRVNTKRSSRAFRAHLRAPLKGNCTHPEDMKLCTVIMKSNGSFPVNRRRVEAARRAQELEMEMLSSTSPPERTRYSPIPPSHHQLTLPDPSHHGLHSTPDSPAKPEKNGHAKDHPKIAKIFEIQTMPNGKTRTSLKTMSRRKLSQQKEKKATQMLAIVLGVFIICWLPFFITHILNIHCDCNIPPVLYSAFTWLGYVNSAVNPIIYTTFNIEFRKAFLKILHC

SMILES	Activity (D(1A) dopamine receptor [1]) [%]	IC50 (D(1A) dopamine receptor [2]) [nM]	IC50 (D(2) dopamine receptor [3]) [nM]	Activity (D(2) dopamine receptor [4]) [%]
COc1ccc2c(c1O[C@@H]1O[C@H](CO)[C@@H](O)[C@H](O)[C@H]1O)CN1CCc3cc4c(cc3[C@H]1C2)OCO4	-7.46	> 10000	> 10000	3.17
COc1ccc2c(c1OC(C)=O)CN1CCc3cc4c(cc3C1C2)OCO4 (racemic)	0	1080	420	4.5
COc1ccc2c(c1OC)CN1CCc3cc(O)c(O)cc3C1C2 (racemic)	-3.17	630	40	2.53
COc1cc2c(cc1O)CC1c3cc(OC)c(OC)cc3CCN1C2 (racemic)	-5.16	670	2590	3.35
COc1cc2c(c(OC)c1O)CC1c3cc4c(cc3CCN1C2)OCO4 (racemic)	-5.75	7420	1080	1.29
COc1cc2c(cc1O)CC1c3cc4c(cc3CCN1C2)OCO4 (racemic)	-3.7	> 10000	4940	3.81
Oc1cccc2c1CC1c3cc4c(cc3CCN1C2)OCO4 (racemic)	1.8	1030	190	2.22
COc1cc2c(cc1OC)[C@@H]1Cc3ccc(OC)c(OC)c3CN1CC2 [TETRAHYDROPALMATINE]	-7.43	1630	450	3.51

Further lines, results first:

Activity (D(1A) dopamine receptor [1]) [%]	IC50 (D(1A) dopamine receptor [2]) [nM]	IC50 (D(2) dopamine receptor [3]) [nM]	Activity (D(2) dopamine receptor [4]) [%]	SMILES
-1.05	> 10000	> 10000	2.96	COc1ccc2c(c1O[C@@H]1O[C@H](CO)[C@@H](O)[C@H](O)[C@H]1O)CN1CCc3cc4c(cc3[C@@H]1C2)OCO4
-3.69	> 10000	7960	2.97	COc1cc(/C=C/C(=O)Oc2c(OC)ccc3c2CN2CCc4cc5c(cc4C2C3)OCO5)ccc1OC(C)=O (racemic)
-4.32	410	3110	5.52	COc1cc2c(cc1OC)C1Cc3ccc(OC)c(O)c3CN1CC2 (racemic)
4.48	> 10000	> 10000	2.5	c1ccc(COc2cccc3c2CC2c4cc5c(cc4CCN2C3)OCO5)cc1 (racemic)
-5.41	390	76	4.27	COc1ccc2c(c1O)CN1CCc3cc(O)c(O)cc3C1C2 (racemic)
5.95	> 10000	8810	6.88	COc1cc2c(cc1OC)C1Cc3c(cc(O)c(OC)c3OC)CN1CC2 (racemic)
-4.41	1420	500	2.17	Oc1ccc2c(c1)CN1CCc3cc4c(cc3C1C2)OCO4 (racemic)
24.4	> 10000	3580	3.67	COc1cc2c(cc1O)C1Cc3cc(OC)c(OC)cc3CN1CC2 (racemic)
-3.91	6510	1530	2.39	COc1cc2c(cc1OC)C1Cc3ccc(O)cc3CN1CC2 (racemic)
-4.17	> 10000	6360	3.74	COc1cc2c(cc1OC)C1Cc3c(cc(OC)c(O)c3OC)CN1CC2 (racemic)
